Columns and labels:
[1] = test system: mitochondrial membrane potential of EHTs; assay: Mitochondrial membrane potential (MMP) of EHTs by TMRE fluorescence; assay type: cell-based, rat
Excerpt: The bottoms of the 8-well chambers were sealed with glass coverslips so that EHT cells could be observed using various optical instruments including microscopes and fluorescence plate readers in real time or after fixations. […] Mitochondria produce ATP via the electrochemical/osmotic gradient (˜180 mV) generated and maintained by the electron transport chain. Therefore, highly charged mitochondria produce ATP to support cardiac contractions.
Using a fluorescence plate reader (Synergy™ HT, BioTek U.S., Winooski, V T), we simultaneously measured TMRE's fluorescent signal (543 nm excitation/605±16 nm emission) and EHT contractions to determine the coupling between MMP and cardiac contractility. After a short (15-min) administration of 900 μM DNP (2,4-dinitrophenol), a potent uncoupler of MMP (FIG. 7F), to the EHTs MMP was reduced and cardiac contraction stopped (FIG. 7E).
Drug-induced cardiotoxicity often damages mitochondrial metabolic activity. We have developed additional assays for quantifying the mitochondrial membrane potential (MMP) of EHTs using the cationic potential metric dye tetramethylrhodamine ethyl ester (TMRE), and we are also assessing EHT viability using 3-(4,5-Dimethylthiazol-2-yl)-2,5-diphenyltetrazolium (MTT). An automated microplate reader was used to measure fluorescence or optical absorbance of these dyes. With these assays, we successfully screened for a small molecule that modulates cellular and tissue contractility without altering MMP and viability of cells (details in Lam, V. and T. Wakatsuki, Hydrogel Tissue Construct-Based High-Content Compound Screening. Journal of Biomolecular Screening, 2011. 16(1): p. 120-128.). Four test compounds were assayed: Rho kinase inhibitor (H1152), cytochalasin D (CD), 2,4-dinitrophenol (DNP), and rotenone (ROT). […] Assays to assess mitochondrial activity and metabolic parameters such as ATP concentrations, O2 consumption and free radical production have been measured using similar techniques, see e.g. Lam, V. and T. Wakatsuki, Hydrogel Tissue Construct-Based High-Content Compound Screening. […]

[2] = test system: engineered heart tissues (EHTs); assay: EHT contractility assay (cardiac twitch force, Palpator)
Excerpt: EHTs were fabricated with 1.75-2×10^6 cardiomyocytes/mL using MC-8™ system (InvivoSciences, LLC). The cardiomyocytes were obtained from neonatal rats and guinea pigs, or embryonic mice or chicken. Viable and spontaneously twitching EHTs were generally obtained by day 10 after fabrication. The EHTs were electrically stimulated (60 mV, 1 Hz) during mechanical testing. The mechanical properties of EHTs using the Palpator™ device (InvivoSciences, LLC). This automated device positions a force probe directly above the center of each well (FIG. 7A-i) and moves it vertically in two (or more) steps (FIG. 7A-ii, -iii) to stretch twice the EHT to 3.7% and 7.7% longitudinally. Cardiac twitch (systolic) force and resting (diastolic) force were measured during each step for 30 and 60 s. […] The peak rate at which the cardiac twitch force changes (FIG. 7C) also indicated the contractility (FIG. 7D) of the EHT much like the dP/dtmax of left ventricles measured by pressure catheters.
To validate the ability of our assay system to assess cardiotoxicity, we profiled the effects of anti-cancer agents (doxorubicin and daunorubicin) and beta-adrenoceptor agonist (isoproterenol), which are known to cause cardiotoxicity in clinical and experimental applications. […] After a 3-day incubation with doxorubicin (20 nM, 200 nM, or 1 μM) the EHTs were measured again and their viability was determined.

[3] = test system: cardiac fibroblasts / myofibroblasts (mFBs) in EHTs; assay: Elimination of puromycin-sensitive fibroblasts in EHTs; assay type: cell-based, human; design: effect on mFBs: dose or concentration left out as unconfirmed
Excerpt: We fabricated EHTs using CMs derived from mouse ES cells (Cor.AT, Axiogenesis) that express a puromycin resistance-GFP reporter gene fusion driven by a cardiac-specific (αMHC) promoter. These Cor.AT CMs (1.75×10^6) were co-cultured with cardiac fibroblasts (FBs) in a 1:1 ratio (See Asnes, C. F., et al., Reconstitution of the Frank-Starling mechanism in engineered heart tissues. Biophys J, 2006. 91(5): p. 1800-10) for developing a coherently contracting EHT. The EHTs were compressed by the FBs from a loose (6×6×3.5 mm^3) hydrogel into a compacted (˜3×2×0.5 mm^3) coherently contracting tissue in 5-7 days. […] The remodeling capacity of FBs was needed to fabricate compressed 3D tissues that can generate cardiac contraction synchronously. Upon achieving synchronous contraction, the cardiac twitch force was measured using the Palpator. […] We expected that application of a similar protocol to fabricate EHTs with iPSC-derived CMs should produce similar cardiac contractility since individual CMs derived from human ES cells, iPSCs, and native rat hearts produced equivalent degrees of cardiac contractility. Our results showing similar results for human ES cells is below.
An increasing density of cardiomyocytes (CMs) in the EHT constructs promoted intercellular contacts to form a synchronously contracting EHT while myofibroblasts (mFBs) remodeled and compressed the constructs. However, an overgrowth of mFBs limited survival of CMs. By regulating the mFB proliferation, cardiac contractility of EHTs without mFBs was maintained at least 10-50% longer than those with mFBs. […] The Cor.AT CMs (1.75×10^6) were co-cultured with mFBs in a 5:1 ratio using previously published method and developed a coherently beating EHT. The EHTs with mFBs were compressed from a loose (6×6×3.5 mm^3) hydrogel into a compacted (˜3×2×0.5 mm^3) tissue in 5-7 days (FIG. 15B). Varying numbers of mFBs were mixed with CMs (e.g., 0.1:1, 0.5:1 up to 1:1) to fabricate EHTs. […]

[4] = 900 μM, short (15-min) administration to EHTs

O=[N+]([O-])c1ccc(O)c([N+](=O)[O-])c1 [DNP, 2,4-dinitrophenol]
MMP (mitochondrial membrane potential) ([1]; 450 μM): attenuated
MMP (mitochondrial membrane potential) [1, 4]: reduced
EC50 ([1]; rat EHT, FIG. 14, read-out: EC50 of MMP dissipation): 340 µM
cardiac twitch force ([2]; 450 μM): not reduced significantly
cardiac contraction [2, 4]: stopped
twitch force ([2]; increasing concentrations, FIG. 7E): reduced

COc1ccc(C[C@H](N)C(=O)N[C@H]2[C@@H](O)[C@H](n3cnc4c(N(C)C)ncnc43)O[C@@H]2CO)cc1 [puromycin]
effect on mFBs [3]: eliminated
effect on puromycin sensitive FBs ([3]; 5 μM, after compaction, EHTs with Cor.AT CMs): eliminated or their viability reduced
effect on mFB in the EHTs ([3]; 10 μM, Cor.AT myocytes with human cardiac myofibroblasts): eliminated

From patent publication US10113150B2, “Engineered cardiac tissues and methods of using them” (InvivoSciences, Inc., priority 2011, dated 2018)
